The values below come from patent US7271144B2, “Therapeutic fibrin-derived peptides and uses thereof” (Fibrex Medical Research & Development GmbH, priority 2000, dated 2007).

For one assay, the system named is monocytes. The experiment in a line: Adhesion and transmigration of pure monocytes on HUVEC on a collagen matrix. Type of assay: cell-based, human. On the procedure:
(§1) Endothelial cells from human umbilical veins (HUVEC) were marked with a red fluorescent dye (Cell Tracker Orange, 1 μl/ml, Molecular Probes, Eugene, Oreg.) and were dispersed on a collagen matrix (Collaborative Biomedical Products, Bedford, Mass.). Upon confluence of the endothelial cells, peripheral mononuclear blood cells (PBMC) (10^5 cells per 25 mm^2) marked with a green fluorescent dye (Cell Tracker Green, 1 μl/ml, Molecular Probes of Messrs. Eugene, Origon) were superimposed. Thereafter, the cells were incubated at 37° C. for twelve hours.
(§2) Adhering cells that had transmigrated into the gel were photographed with a laser-scan microscope, were converted into pixels and were evaluated by means of an “NIH image” according to Gröger et al. (J. Immunol. Method 1999; 222: 101-109).
(§3) It was feasible to determine the number of adherent cells per 0.1 mm^2 such as mentioned under “adhesion”. It was feasible to determine the number of migrated cells per 0.04 mm^3 such as mentioned under “migration”. The mean value of three times three trials was evaluated together with the standard deviation.
The proceedings were in accordance with Example 11, except for pure monocytes being used instead of lymphocytes. 100 μg of NDSK-uPA or 100 μg of NDSK-II, respectively, was added to peptide Aalpha, randomized Aalpha, Bbeta or randomized Bbeta.
The proceedings were in accordance with Example 12, with pure monocytes being used. […] of NDSK-uPA or 100 μg of NDSK-II, respectively, was added to the short peptide salts Aalpha Gly Pro Arg (Pro)—NH2 acetate (Aalpha derivative) or Bbeta Gly His Arg Pro-OH acetate (Bbeta derivative).

The test system of a further assay is lymphocytes. The experiment in a line: Adhesion and transmigration of pure lymphocytes on HUVEC on a collagen matrix. Type of assay: cell-based, human. To be noted: for adhesion / migration: lymphocytes. On the procedure: as §1, §2, §3
Since PBMC substantially consists of a mixture of lymphocytes and monocytes, pure lymphocytes instead of PBMC (as in Examples 8-10) were used in Example 11.
100 μg of NDSK-uPA or 100 μg of NDSK-II, respectively, and Aalpha or Bbeta, respectively, were added to the collagen matrix according to Example 8 comprising endothelial cells and lymphocytes.
The proceedings were in accordance with Example 11, with pure lymphocytes being used. 100 μg of NDSK-uPA or 100 μg of NDSK-II, respectively, was added to the short peptide salts derived from Aalpha Gly Pro Arg (Pro)—NH2 acetate (Aalpha derivative) or derived from Bbeta Gly His Arg Pro-OH acetate (Bbeta derivative).

Assay [1] concerns peripheral mononuclear blood cells (PBMC). The experiment in a line: Adhesion and transmigration of PBMC on HUVEC on a collagen matrix. Type of assay: cell-based, human. To be noted: for adhesion / migration: Example 10; for adhesion / migration / migration (migrated cells) / adhesion (adherent cells): PBMC; for migration (migrated cells) / adhesion (adherent cells): Example 8, 12 h. On the procedure:
as §1, §2, §3
100 μg of NDSK-II and Bbeta or Bbeta randomized were added to the collagen matrix according to Example 8 comprising the suspension of PBMC, and further proceedings were in accordance with Example 8.
100 μg of NDSK-II and Aalpha or Aalpha randomized were added to the collagen matrix according to Example 8 comprising the suspension of PBMC, and further proceedings were in accordance with Example 8.

Assay [2] deals with human skin transplanted onto the backs of SCID mice, human lymphocytes injected. The experiment in a line: HU-SCID mouse model: inflammatory sites in transplanted human skin. Type of assay: in vivo. To be noted: 24 hours; for number of inflammatory sites: Example 3, 100 μg alone, tail vein, mean +/- SD. On the procedure:
Human skin was transplanted onto the backs of SCID mice, and two weeks later human lymphocytes were injected into the peritoneum. The proceedings were according to Petzelbauer et al. (J. Invest. Dermatol. 1996, 107; 576-581). Then, fifteen mice thus prepared were injected in their tail veins with the following:
Twenty-four hours later, the human skin was removed and the number of inflammatory sites, expressed in cells per 0.3 mm^2, was evaluated and the mean value was determined with a standard deviation.

Setting [3] is: Example 14, 100 μg of short peptide + 100 μg NDSK-II.
The mark [4] stands for this setting: Example 14, 100 μg of short peptide + 100 mg NDSK-uPA.
[5] abbreviates: Example 13, 100 μg of short peptide + 100 μg NDSK-II.
Setting [6] is: Example 13, 100 μg of short peptide + 100 μg NDSK-uPA.
The mark [7] stands for this setting: Example 13, substance alone, 100 μg.
Where [8] appears, read: Example 12, 100 μg of peptide + 100 μg NDSK-II.
[9] abbreviates: Example 12, 100 μg of peptide + 100 μg NDSK-uPA.
Setting [10] is: Example 12, substance alone, 100 μg.
Where [11] appears, read: 10 μg of peptide + 100 μg NDSK-II.
Where [12] appears, read: 100 μg of peptide + 100 μg NDSK-II.
Setting [13] is: 1000 μg of peptide + 100 μg NDSK-II.
Setting [14] is: Example 11, 100 μg of peptide + 100 μg NDSK-II.
[15] abbreviates: Example 11, 100 μg of peptide + 100 μg NDSK-uPA.
Where [16] appears, read: Example 11, substance alone, 100 μg.

Where no end group is shown, it is not given here.

As to “Gly Pro Arg (Pro)—NH2 acetate [Aalpha derivative]”, the adhesion in the assay with monocytes (setting [3]) was 64 +/− 11 cells per 0.1 mm^2; in the assay on monocytes (setting [4]) it was 60 +/− 5 cells per 0.1 mm^2; with monocytes (Example 14, substance alone), 50 +/− 5 cells per 0.1 mm^2; in the assay with lymphocytes (setting [5]), 131 +/− 7 cells per 0.1 mm^2; in the assay with lymphocytes (setting [6]), 134 +/− 4 cells per 0.1 mm^2; with lymphocytes (setting [7]) it was 77 +/− 4 cells per 0.1 mm^2. The migration is 8 +/− 2 cells per 0.04 mm^3 in the assay with monocytes (setting [3]); 7 +/− 6 cells per 0.04 mm^3 in the assay with monocytes (setting [4]); 4 +/− 4 cells per 0.04 mm^3 in the assay with monocytes (Example 14, substance alone); 49 +/− 6 cells per 0.04 mm^3 in the assay on lymphocytes (setting [5]); 48 +/− 5 cells per 0.04 mm^3 in the assay on lymphocytes (setting [6]); 18 +/− 1 cells per 0.04 mm^3 in the assay with lymphocytes (setting [7]).

As for “Gly His Arg Pro-OH acetate (GHRP-OH; also: acetate salt) [Bbeta derivative, short peptide salt derived from Bbeta]”, the adhesion is recorded as 68 +/− 7 cells per 0.1 mm^2 in the assay with monocytes (setting [3]); 61 +/− 11 cells per 0.1 mm^2 in the assay with monocytes (setting [4]); 52 +/− 7 cells per 0.1 mm^2 in the assay on monocytes (Example 14, substance alone); 69 +/− 7 cells per 0.1 mm^2 in the assay with lymphocytes (setting [5]); 70 +/− 8 cells per 0.1 mm^2 in the assay with lymphocytes (setting [6]); 58 +/− 10 cells per 0.1 mm^2 in the assay with lymphocytes (setting [7]). Besides, the migration with monocytes (setting [3]) is 8 +/− 4 cells per 0.04 mm^3; with monocytes (setting [4]), 8 +/− 3 cells per 0.04 mm^3; in the assay with monocytes (Example 14, substance alone), 6 +/− 1 cells per 0.04 mm^3; with lymphocytes (setting [5]), 14 +/− 5 cells per 0.04 mm^3; in the assay on lymphocytes (setting [6]), 16 +/− 3 cells per 0.04 mm^3; with lymphocytes (setting [7]) it was 12 +/− 9 cells per 0.04 mm^3.

As to “GPRVVERHQSACKDSDWPFCSDEDWNYK (cysteine pairing not given here) [amino acids 1 to 28 of the alpha chain of the fibrin]”, the adhesion in the assay on monocytes (setting [8]) was 68 +/− 10 cells per 0.1 mm^2; in the assay on monocytes (setting [9]), 62 +/− 4 cells per 0.1 mm^2; in the assay on monocytes (setting [10]) it was 59 +/− 6 cells per 0.1 mm^2; in assay [1] (setting [11]) it was 69 +/− 12 cells per 0.1 mm^2; in assay [1] (setting [12]), 73 +/− 13 cells per 0.1 mm^2; in assay [1] (setting [13]) it was 70 +/− 6 cells per 0.1 mm^2. Also, the values for the adhesion with lymphocytes (setting [14]), in the assay on lymphocytes (setting [15]) and in the assay on lymphocytes (setting [16]) were 131 +/− 4 cells per 0.1 mm^2, 131 +/− 4 cells per 0.1 mm^2 and 77 +/− 4 cells per 0.1 mm^2, respectively. Also, the migration in the assay on monocytes (setting [8]) is given as 9 +/− 6 cells per 0.04 mm^3; in the assay on monocytes (setting [9]), 8 +/− 5 cells per 0.04 mm^3; in the assay with monocytes (setting [10]) it was 5 +/− 1 cells per 0.04 mm^3; in assay [1] (setting [11]), 21 +/− 4 cells per 0.04 mm^3; in assay [1] (setting [12]), 15 +/− 6 cells per 0.04 mm^3; in assay [1] (setting [13]), 13 +/− 5 cells per 0.04 mm^3. For the same molecule, the migration in the assay with lymphocytes (setting [14]) was 44 +/− 4 cells per 0.04 mm^3; in the assay with lymphocytes (setting [15]) it was 40 +/− 3 cells per 0.04 mm^3; with lymphocytes (setting [16]) it was 18 +/− 1 cells per 0.04 mm^3. In addition, in assay [1] (Examples 9 and 10, with 100 μg NDSK-II), the “conclusion: blocking of NDSK-II-induced PBMC adhesion/migration” value is “blocks the migration of PBMC only partially”. Further, the “number of inflammatory sites” value in assay [2] is on record as 4+/−1.1 cells per 0.3 mm^2. The inflammatory sites in assay [2] (Examples 4-7, 100 μg of peptide + 100 μg of human NDSK-II) is on record as 21+/−2.2 per 0.3 mm^2. For the same molecule, the “conclusion: blocking of lymphocytic adhesion and migration induced by NDSK-II and NDSK-uPA” value in the assay on lymphocytes (Example 11) is “no blocking activity”.

B1: FCB-2: negative control; 43 kD fibrinogen cleavage product, Aalpha-chain 148-208, Bbeta-chain 191-305 and gamma-chain 95-265 (protein)
chain 1: KVQHIQLLQKNVRAQLVDMKRLEVDIDIKIRSCRGSCSRALAREVDLKDYEDQQKQLEQVI
chain 2: IPTNLRVLRSILENLRSKIQKLESDVSAQMEYCRTPCTVSCNIPVVSGKECEEIIRKGGETSEMYLIQPDSSVKPYRVYCDMNTENGGWTVIQNRQDGSVDFGRKWDPYKQGFGN
chain 3: NPDESSKPNMIDAATLKSRKMLEEIMKYEASILTHDSSIRYLQEIYNSNNQKIVNLKEKVAQLEAQCQEPCKDTVQIHDITGKDCQDIANKGAKQSGLYFIKPLKANQQFLVYCEIDGSGNGWTVFQKRLDGSVDFKKNWIQYKEGFGHLSPTGTTEFWLGNEKIHLISTQ
B1: the results for the “migration (migrated cells)” value in assay [1] (0.1 μg/ml), in assay [1] (1.0 μg/ml) and in assay [1] (10.0 μg/ml) were 6 +/− 4 cells per 0.04 mm^3, 3 +/− 2 cells per 0.04 mm^3 and 5 +/− 4 cells per 0.04 mm^3, respectively. Moreover, the “adhesion (adherent cells)” value in assay [1] (0.1 μg/ml, mean +/- SD) is recorded as 30 +/− 26 cells per 0.1 mm^2; in assay [1] (1.0 μg/ml) it was 10 +/− 10 cells per 0.1 mm^2; in assay [1] (10.0 μg/ml), 21 +/− 7 cells per 0.1 mm^2. Also, the “number of inflammatory sites” value in assay [2] was 9+/−2.1 cells per 0.3 mm^2.

B2: NDSK: 63 kD fibrinogen fragment, N-terminal disulfide knot; Aalpha-chain 1-51, Bbeta-chain 1–118 and gamma-chain 1-78 (protein)
chain 1: ADSGEGDFLAEGGGVRGPRVVERHQSACKDSD
chain 2: QGVNDNEEGFFSARGHRPLDKKREEAPSLRPAPPPISGGGYRARPAKAAATQKKVERKAPDAGGCLHADPDLGVLCPTGCQLQEALLQ
chain 3: YVATRDNCCILDERFGSYCPTTCGIADFLSTYQTKVDKDLQSLEDILHQVEN
B2: the “migration (migrated cells)” value is listed as 6 +/− 3 cells per 0.04 mm^3 in assay [1] (0.1 μg/ml), 5 +/− 2 cells per 0.04 mm^3 in assay [1] (1.0 μg/ml) and 6 +/− 3 cells per 0.04 mm^3 in assay [1] (10.0 μg/ml). Moreover, the “adhesion (adherent cells)” value was 31 +/− 18 cells per 0.1 mm^2 in assay [1] (0.1 μg/ml, mean +/- SD); 35 +/− 18 cells per 0.1 mm^2 in assay [1] (1.0 μg/ml); 36 +/− 24 cells per 0.1 mm^2 in assay [1] (10.0 μg/ml).
